The IC50 is the concentration needed to halve the response being measured.

The first assay addresses T1, HMG-CoA synthase (Rattus norvegicus, UniProt P17425).
T1 construct: The livers from male Charles River CD rats (225-350 g) were homogenized; from tissue; host or cells: rat liver (male Charles River CD rats), 100,000×g supernatant, ammonium sulfate precipitate, DEAE-52 fraction
T1 sequence (P17425 1-520): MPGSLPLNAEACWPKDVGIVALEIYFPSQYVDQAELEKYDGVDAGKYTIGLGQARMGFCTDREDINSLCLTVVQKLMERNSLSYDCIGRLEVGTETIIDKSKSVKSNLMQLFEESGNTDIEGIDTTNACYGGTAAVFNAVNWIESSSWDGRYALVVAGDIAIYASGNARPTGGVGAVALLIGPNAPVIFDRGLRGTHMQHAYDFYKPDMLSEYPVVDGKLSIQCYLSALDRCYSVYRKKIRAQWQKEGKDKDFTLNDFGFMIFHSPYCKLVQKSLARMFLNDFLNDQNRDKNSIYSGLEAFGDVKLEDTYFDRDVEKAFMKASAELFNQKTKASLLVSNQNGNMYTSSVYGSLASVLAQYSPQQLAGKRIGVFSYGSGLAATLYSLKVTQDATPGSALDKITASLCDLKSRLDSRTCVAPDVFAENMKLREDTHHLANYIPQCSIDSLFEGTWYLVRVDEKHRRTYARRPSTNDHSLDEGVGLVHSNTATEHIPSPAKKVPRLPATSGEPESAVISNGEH
Briefly: HMG-CoA synthase inhibition assay. It is filed as biochemical. The settings on record: Table I; n is 1, R3 is H. As to the method: The intrinsic HMG-CoA synthase inhibition activity of the compounds of this invention is measured by the standard in vitro protocol described below:
The livers from male Charles River CD rats (225-350 g) were homogenized in 0.25M sucrose which was adjusted with phenylmethylsulfonylfluoride (PMSF) and N-p-tosyl-l-lysine chloromethyl ketone (TLCK) so that the final concentration of each was […], respectively. The homogenate was centrifuged at 15,000×g for 20 minutes, the supernatant filtered through a fine nylon screen to remove most of the fat layer and recentrifuged at 100,000×g for 1 hour. This supernatant was removed and 1M potassium phosphate, dithiothreitol (DTT) and ethylene glycolbis(β-aminoethyl ether)-N,N,N',N'-tetraacetic acid (EGTA) added to give a final concentration of 0.1M (pH 7.2), 0.5 mM and 0.1 mM, respectively. Solid ammonium sulfate was added to 50% saturation to the protein solution, it was centrifuged at 15,000×g and the supernatant discarded. This precipitated protein could be stored at -70° C. for at least one month with very little loss of activity. The ammonium sulfate precipitate was dissolved in an minimal amount of 0.06M potassium phosphate buffer (pH 7.2) containing 0.5 mM dithiothreitol and 0.1 mM EGTA (referred to as 0.06M phosphate buffer) and dialyzed overnight against 2 liters of the same buffer to remove the ammonium sulfate and to inactivate HMG-CoA lyase [Clinkenbeard, et al., J. Biol. Chem. 250, 3108-3116(1975)].
The dialyzed extract was added to a column of DEAE-52 (Whatman) which had been equilibrated with 0.06M phosphate buffer (10 mg of protein to 1 ml bed volume of the resin). The DEAE-cellulose was eluted with 0.06M phosphate buffer until the optical density at 280 nm was essentially zero. This fraction contained the β-ketoacetyl-CoA thiolase activity. The HMG-CoA synthase was eluted from the column with 0.1M phosphate buffer (pH 7.2) containing 0.5 mM DTT and 0.1 mM EGTA, and was virtually free of all thiolase activity. The protein was precipitated by the addition of ammonium sulfate to give 50% saturation. This solution was stirred for 10 minutes at 4° C. and the precipitate collected by centrifugation at 15,000 rpm for 10 minutes. The supernatant was discarded and the precipitate dissolved in a minimum of 0.06M phosphate buffer, pH 7.2 (about 10 ml) and the enzyme stored at -80° C.
HMG-CoA Synthase Inhibition Assay
Enzyme protein (ca. 24 mg) was added to a solution containing […] (pH 8.0), 11.7 μM MgCl2, 1.17 μM ethylenediaminetetraacetic acid (EDTA), 0.58 μM dithiothreitol, and the indicated concentrations of the test compound (added as a 2 mg/ml solution in dimethylsulfoxide). The incubation took place in a volume of 0.085 ml at 30° in a shaking water bath. After 5 minutes, […] of a solution containing acetoacetyl-CoA and 0.1 μCi of 1-[^14 C]-acetyl-CoA was added to give a final concentrations of 0.1 and 0.4 μM, respectively. The incubation was continued for 10 more minutes and the reaction stopped by the addition of […] of the assay mixture to 0.2 ml of 6N HCl in a glass scintillation vial. The vial was heated for 1 hour at 120° after which time 0.2 ml more of 6N HCl was again added to each vial and the heating continued for another hour. Following this, 1.0 ml of 0.9% saline was added to each vial and finally 10 ml of scintillation liquid. Radioactivity was determined in a Packard Tri-Carb liquid scintillation counter.
Percent inhibition is calculated by the formula: [formula]
IC50 values were determined by plotting the log of the concentration of the test compound verses the percentage inhibition and fitting a straight line to the resulting data by using the least squares method.
As to `Cc1ccc(S(=O)(=O)N2C(=O)C[C@H]2CSc2ccccc2)cc1` [Table I i), (4S)-4-Thiophenoxymethyl-N-toluenesulfonyl-2-azetidinone], the IC50 was found to be 70 nM.

In turn, `Cc1ccc(S(=O)(=O)N2C(=O)C[C@H]2C[S+]([O-])c2ccccc2)cc1` (stereo partly drawn) [Table I ii)] showed an IC50 of 120 nM.

Molecule `Cc1ccc(S(=O)(=O)N2C(=O)C[C@H]2CS(=O)(=O)c2ccccc2)cc1` [Table I iii), (4S)-4-Phenylsulfonymethyl-N-toluenesulfonyl-2-azetidinone] gave an IC50 of 120 nM. This lies in the sub-micromolar range.

`COC(=O)c1ccc(OC[C@@H]2CC(=O)N2S(=O)(=O)c2ccc(C)cc2)cc1` [Table I iv), (4S)-4-p-Methoxycarbonylphenoxymethyl-N-toluenesulfonyl-2-azetidinone] returned an IC50 of 46 nM.

On to `Cc1ccc(S(=O)(=O)N2C(=O)C[C@H]2CI)cc1` [Table I v)], for which the IC50 turned out to be 820 nM.

The assay is the same for the next values; noted with them: Table II; n is 1, R3 is C1-5 alkyl.
`CC[C@@H]1C(=O)N(S(=O)(=O)c2ccc(C)cc2)[C@@H]1CSc1ccccc1` (relative stereo) [Table II i)]: the IC50 was 120 nM.

`CC[C@@H]1C(=O)N(S(=O)(=O)c2ccc(C)cc2)[C@@H]1COC` (relative stereo) [Table II ii), (±)-cis-3-Ethyl-4-methoxymethyl-N-toluenesulfonyl-2-azetidinone] returned an IC50 of 67 nM.

The molecule `CC[C@@H]1C(=O)N(S(=O)(=O)c2ccc(C)cc2)[C@@H]1CF` (relative stereo) [Table II iii), (±)-cis-3-Ethyl-4-fluoromethyl-N-toluenesulfonyl-2-azetidinone] showed an IC50 of 60 nM.

Staying with this assay, now noted: Table III; n is 2, R3 is H.
As to `COC(=O)c1ccc(OCCC2CC(=O)N2S(=O)(=O)c2ccc(C)cc2)cc1` (racemic) [Table III i), (±)-4-(2-p-Methoxycarbonylphenoxy)ethyl-N-toluenesulfonyl-2-azetidinone], half-maximal inhibition (IC50) required 66 nM.

`Cc1ccc(S(=O)(=O)N2C(=O)CC2CCOCc2ccccc2)cc1` (racemic) [Table III ii), (±)-4-(2-Benzyloxy)ethyl-N-toluenesulfonyl-2-azetidinone]: the IC50 was 90 nM. This IC50 and that of the molecule before are within 1.5-fold of each other.

For the molecule `Cc1ccc(S(=O)(=O)N2C(=O)CC2CCOC(c2ccccc2)c2ccccc2)cc1` (racemic) [Table III iii), (±)-4-(2-Diphenylmethoxy)ethyl-N-toluenesulfonyl-2-azetidinone], the IC50 was determined as 61 nM.

Still in this assay, the particulars now being: Table IV; n is 2, R3 is CH3CH2 or CH3OCH2.
In turn, `CC[C@@H]1C(=O)N(S(=O)(=O)c2ccc(C)cc2)[C@@H]1CCOc1ccc(C(=O)OC)cc1` (relative stereo) [Table IV i), (±)-cis-3-Ethyl-4-(2-p-methoxycarbonylphenoxy)ethyl-N-toluenesulfonyl-2-azetidinone] came in with an IC50 of 65 nM.

In the case of `COC[C@H]1C(=O)N(S(=O)(=O)c2ccc(C)cc2)[C@@H]1CCOc1ccc(C(=O)OC)cc1` (relative stereo) [Table IV ii)], half-maximal inhibition (IC50) was put at 1400 nM.

The molecule `CC[C@@H]1C(=O)N(S(=O)(=O)c2ccc(C)cc2)[C@@H]1CCS(=O)(=O)c1ccccc1` (relative stereo) [Table IV iii), (±)-3-Ethyl-4-(2-phenylsulfonyl)ethyl-N-toluenesulfonyl-2-azetidinone] displayed an IC50 of 640 nM.

Staying with this assay, now noted: Table V; n is 3, R3 is H.
Turning to `COC(=O)c1ccc(OCCCC2CC(=O)N2S(=O)(=O)c2ccc(C)cc2)cc1` (stereo not drawn) [Table V i)], the IC50 was 190 nM.

Molecule `Cc1ccc(S(=O)(=O)N2C(=O)CC2CCCOc2ccccc2)cc1` (stereo not drawn) [Table V ii)] displayed an IC50 of 140 nM.

In turn, `Cc1ccc(S(=O)(=O)N2C(=O)CC2CCCBr)cc1` (stereo not drawn) [Table V iii)] showed an IC50 of 130 nM.

Staying with this assay, now noted: Table VI; n is 4.
In turn, `COCC1C(=O)N(S(=O)(=O)c2ccc(C)cc2)C1CCCCC(C)CC(C)=CC(C)=CC(=O)OC` [Table VI i), (3R,4R,5'R)-(E,E)-3-Methoxymethyl-4-(10'-methoxycarbonyl-5',7',9'-trimethyl-7',9'-decadienyl)-N-toluensulfonyl-2-azetidinone] returned an IC50 of 3600 nM. That is a single-digit micromolar value.

(Values after patent US5120729A, “Beta-lactams as antihypercholesterolemics” (Merck & Co., Inc., priority 1990, dated 1992).)
